± gives the expanded uncertainty stated by the source.
Conditions: Liquid; for mass density: 101.33 kPa; for vapor or sublimation pressure: Closed cell (Static) method

C1CCC2OC2C1 (stereo unspecified) [7-oxabicyclo[4.1.0]heptane]
mass density (277.7 K): 988.4 ± 2.5 kg/m3 | mass density (289 K): 978 ± 2.4 kg/m3 | mass density (293.2 K): 972.2 ± 2.3 kg/m3 | mass density (303.2 K): 963.8 ± 2.4 kg/m3 | mass density (313.2 K): 955 ± 2.5 kg/m3 | mass density (323.2 K): 944.8 ± 2.6 kg/m3 | mass density (333.2 K): 935.4 ± 2.8 kg/m3 | mass density (343.2 K): 925.5 ± 2.9 kg/m3 | mass density (353.2 K): 915.7 ± 3.1 kg/m3 | vapor or sublimation pressure (360.91 K): 25.5 ± 1.5 kPa | vapor or sublimation pressure (361.13 K): 25.8 ± 1.5 kPa | mass density (363.2 K): 903.9 ± 3.2 kg/m3 | vapor or sublimation pressure (382.47 K): 52.4 ± 1.5 kPa | vapor or sublimation pressure (383.09 K): 53.6 ± 1.5 kPa | vapor or sublimation pressure (404.87 K): 101.3 ± 10 kPa | vapor or sublimation pressure (405.48 K): 103.8 ± 10 kPa | vapor or sublimation pressure (423.87 K): 167 ± 10 kPa | vapor or sublimation pressure (443.95 K): 268 ± 10 kPa | vapor or sublimation pressure (453.99 K): 333 ± 10 kPa | vapor or sublimation pressure (463.99 K): 409 ± 10 kPa | vapor or sublimation pressure (474.03 K): 497 ± 10 kPa

Reference: the NIST ThermoML archive (doi:10.1021/je050156k)
